Measured values published in patent US8703451B2, “Method for the production of free carboxylic acids” (priority 2008, dated 2014).

Legend:
[1] = test system: Ralstonia eutropha PHB-4 (reclassified as Cupriavidus necator, DSMZ 541); type: cell-based; conditions: 1, 5 and 10% (w/v) TOA; shake flasks, 24 h, 30° C., 140 rpm
Procedure: 2-Hydroxyisobutyric-acid-producing Ralstonia eutropha PHB-4 (reclassified as Cupriavidus necator, DSMZ 541), which have been transformed with the plasmid pBBR1MCS-2::icmA-icmB, SEQ ID No. 1, were grown as two 50 ml cultures in a shaking incubator under standard conditions (30° C., 140 rpm, 20 h) in LB medium.
From this, for the biomass production, 5×10 ml were inoculated over into 40 ml of modified mineral salt medium (in accordance with Schlegel et al., 1961) and incubated for 10 h under standard conditions
The biomass cultures were centrifuged off and resuspended in 10 ml of modified mineral salt medium.
Using the resuspensions, 5 flasks of a Ramos shaking incubator (Respiration Activity Monitoring System) were inoculated. The flasks were filled with modified mineral salt medium (addition of 1 g/l of yeast extract and 15 g/l of fructose) with vitamin B12 (60 mg/l). 3 flasks additionally comprised 1, 5 and 10% (w/v) of trioctylamine (TOA).
The flasks were incubated for 24 h under standard conditions (30° C., 140 rpm).
After 0, 15 and 24 hours, samples were taken and CFU (OD), pH, and 2HIB concentration in the broth were determined.
For the CFU determination, dilution series of the broths were prepared. The dilutions were plated out onto LB agar plates with 300 mg/l of Kanamycin and incubated for 24 h at 30° C. A 4-fold determination of the dilutions 10^−8 and 10^−9 was carried out.

[2] = test system: Ralstonia eutropha PHB-4 (reclassified as Cupriavidus necator, DSMZ 541); type: cell-based; conditions: 0.5%, 1%, 5% and 10% (w/v) TOA; over a period of 20 hours (fermentation time 46-65 hours)
Procedure: Biocompatibility of TOA (trioctylamine) with Ralstonia eutropha Cultures of Ralstonia eutropha PHB-4 (reclassified as Cupriavidus necator, DSMZ 541) transformed with the plasmid: pBBR1MCS-2::icmA-icmB with SEQ ID No. 1 were fermented on a 400 ml scale in a standard medium for 46 hours to an OD (optical density at 600 nm) of ca. 30, which corresponds to a CFU (colony formed units) of 1×10^11 per ml, under standard conditions (30° C.; pH 6.8; rpm 250-750; pO2 20%).
After a fermentation time of 48 hours, 0.5%, 1%, 5% and 10% (w/v) trioctylamine (TOA) were added under sterile conditions. After a further 6 and 20 hours the CFU were determined.
To ascertain the CFU, dilution series of the broths were prepared. The dilutions were plated out onto agar plates and incubated for 24 hours at 30° C.
The values are summarized in the table below, the CFU values are standardized to 1 ml of fermentation broth.

SMILES: CCCCCCCCN(CCCCCCCC)CCCCCCCC [TOA, trioctylamine]
- Influence on cell growth (CFU, FIG. 1) [1]: not influenced
- Change of CFU in the presence of TOA [2]: increased further
